Source: patent publication US20260272964A1, “PENTAGALLOYL GLUCOSE DERIVED FROM SCHINUS PLANTS AND METHODS OF USE” (Emory University, priority 2020, published 2026)
“And” between values parts separate entries of the source, which are not always exact repeats. Identical values can stand only once. Like-named read-outs stand apart in the source and are kept apart here.

Key:
[1] = test system: Acinetobacter baumannii; experiment: Growth inhibition of Acinetobacter baumannii (CRAB and susceptible strains); type: cell-based; details: for IC50 / MIC: Acinetobacter baumannii
Description: A natural products library was screened for growth inhibition of CRAB. Lead extracts were then tested in serial dilution and nine extracts from seven species were chosen for further study based on activity. Extract 429, made from the leaves of Schinus terebinthifolia, underwent bioassay-guided fractionation for growth inhibition (FIG. 1).
A library of botanical extracts generated from plants was screened for growth inhibition of CRAB. […] Bioassay-guided fractionation lead to the isolation of pentagalloyl glucose (PGG), a bioactive gallotannin. […] Topical applications of PGG, such as wound rinses and dressings, are contemplated. […]

[2] = test system: Enterobacter cloacae; experiment: Growth inhibition of ESKAPE pathogens; type: cell-based
Description: (§1) PGG was also tested against a panel of other ESKAPE pathogens: Enterococcus faecium, Staphylococcus aureus, Klebsiella pneumoniae, Pseudomonas aeruginosa, and Enterobacter cloacae.

[3] = test system: Enterococcus faecium; experiment: Growth inhibition of ESKAPE pathogens; type: cell-based
Description: as §1

[4] = test system: Klebsiella pneumoniae; experiment: Growth inhibition of ESKAPE pathogens; type: cell-based
Description: as §1

[5] = test system: Pseudomonas aeruginosa; experiment: Growth inhibition of ESKAPE pathogens; type: cell-based
Description: as §1

[6] = test system: Staphylococcus aureus; experiment: Growth inhibition of ESKAPE pathogens; type: cell-based; details: strain LAC
Description: as §1

[7] = test system: A. baumannii AB5075; experiment: Restoration assay (iron addition to PGG-treated wells); type: cell-based, Acinetobacter baumannii; details: AB5075, 1 mM iron (II) or iron (III) sulfate on PGG-treated wells, 24-48 h
Description: To test for the restoration of bacterial growth after iron addition, iron (II) and iron (III) sulfate were spread at concentrations of 1 mM on PGG-treated A. baumannii AB5075 wells that had no visible colonies after 24 h of incubation. Immediately after addition of iron to the agar, all wells containing PGG obtained a purple color, increasing in darkness with increasing PGG concentration.

O=C(OC[C@H]1O[C@@H](OC(=O)c2cc(O)c(O)c(O)c2)[C@H](OC(=O)c2cc(O)c(O)c(O)c2)[C@@H](OC(=O)c2cc(O)c(O)c(O)c2)[C@@H]1OC(=O)c1cc(O)c(O)c(O)c1)c1cc(O)c(O)c(O)c1 [PGG, [(2R,3R,4S,5R,6S)-3,4,5,6-tetrakis[(3,4,5-trihydroxybenzoyl)oxy]oxan-2-yl]methyl 3,4,5-trihydroxybenzoate]
>256 µg/mL: PGG MIC ([1]; strain ATCC17978)
128 µg/mL: MIC ([1]; strain AR Bank #0045, read-out: PGG MIC) | MIC ([1]; strain AR Bank #0273, read-out: PGG MIC) | MIC ([1]; strain AR Bank #0281, read-out: PGG MIC) | MIC ([1]; strain AR Bank #0299, read-out: PGG MIC) | MIC ([1]; strain OIFC143, read-out: PGG MIC) | IC50 ([3]; strain NR-31915, read-out: PGG IC50)
64 µg/mL: MIC ([1]; A. baumannii, strain not given, read-out: MIC) | IC50 ([1]; strain AR Bank #0274, read-out: PGG IC50) | MIC ([1]; strain AR Bank #0284, read-out: PGG MIC) | IC50 ([2]; strain AR Bank #0032, read-out: PGG IC50) | MIC ([5]; strain AR Bank #0094, read-out: PGG MIC) | MIC ([5]; strain AR Bank #0095, read-out: PGG MIC) | MIC ([5]; strain AR Bank #0103, read-out: PGG MIC) | MIC ([5]; strain AR Bank #0110, read-out: PGG MIC) | MIC ([5]; strain AR Bank #0111, read-out: PGG MIC) | MIC ([6]; read-out: PGG MIC)
can be attenuated by addition of iron: restoration of bacterial growth after iron addition [7]
256 µg/mL: MIC ([1]; strain AB5075, read-out: PGG MIC) | MIC ([1]; strain AR Bank #0035, read-out: PGG MIC) | MIC ([1]; strain AR Bank #0300, read-out: PGG MIC) | MIC ([1]; strain NR-9667, read-out: PGG MIC) | MIC ([4]; read-out: PGG MIC)
8 µg/mL: IC50 ([1]; A. baumannii strains tested in this study, read-out: median IC50 for growth inhibition) | IC50 ([1]; ATCC17978, strain ATCC17978, read-out: PGG IC50) | IC50 ([1]; strain AR Bank #0033, read-out: PGG IC50) | IC50 ([1]; strain AR Bank #0035, read-out: PGG IC50) | IC50 ([1]; strain AR Bank #0037, read-out: PGG IC50) | IC50 ([1]; strain AR Bank #0045, read-out: PGG IC50) | IC50 ([1]; strain AR Bank #0102, read-out: PGG IC50) | IC50 ([1]; strain AR Bank #0273, read-out: PGG IC50) | IC50 ([1]; strain AR Bank #0275, read-out: PGG IC50) | IC50 ([1]; strain AR Bank #0277, read-out: PGG IC50) | IC50 ([1]; strain AR Bank #0278, read-out: PGG IC50) | IC50 ([1]; strain AR Bank #0281, read-out: PGG IC50) | IC50 ([1]; strain AR Bank #0283, read-out: PGG IC50) | IC50 ([1]; strain AR Bank #0284, read-out: PGG IC50) | IC50 ([1]; strain AR Bank #0295, read-out: PGG IC50) | IC50 ([1]; strain AR Bank #0299, read-out: PGG IC50) | IC50 ([1]; strain AR Bank #0300, read-out: PGG IC50) | IC50 ([1]; strain OIFC143, read-out: PGG IC50) | IC50 ([4]; strain NR-15410, read-out: PGG IC50) | IC50 ([5]; strain AR Bank #0054, read-out: PGG IC50) | IC50 ([5]; strain AR Bank #0094, read-out: PGG IC50) | IC50 ([5]; strain AR Bank #0095, read-out: PGG IC50) | IC50 ([5]; strain AR Bank #0100, read-out: PGG IC50) | IC50 ([5]; strain AR Bank #0108, read-out: PGG IC50) | IC50 ([5]; strain PA01, read-out: PGG IC50)
16 µg/mL: IC50 ([1]; strain AB5075, read-out: PGG IC50) | IC50 ([1]; strain AR Bank #0036, read-out: PGG IC50) | IC50 ([1]; strain AR Bank #0070, read-out: PGG IC50) | IC50 ([1]; strain AR Bank #0282, read-out: PGG IC50) | IC50 ([1]; strain NR-9667, read-out: PGG IC50) | IC50 ([1]; strain Naval-81, read-out: PGG IC50) | MIC ([5]; P. aeruginosa, strain not given, read-out: MIC) | MIC ([5]; strain AR Bank #0064, read-out: PGG MIC) | MIC ([5]; strain PA01, read-out: PGG MIC) | IC50 ([6]; read-out: PGG IC50)
8 µg/mL to 64 µg/mL and 8.5 µM to 68 µM: IC50 ([1]; read-out: IC50s, range over strains, one susceptible and 23 drug resistant strains (19 CRAB))
> 256 µg/mL: MIC ([1]; ATCC17978, strain ATCC17978, read-out: PGG MIC) | MIC ([1]; fourteen strains, read-out: MICs of fourteen of the A. baumannii strains tested) | MIC ([1]; strain AR Bank #0033, read-out: PGG MIC) | MIC ([1]; strain AR Bank #0036, read-out: PGG MIC) | MIC ([1]; strain AR Bank #0037, read-out: PGG MIC) | MIC ([1]; strain AR Bank #0070, read-out: PGG MIC) | MIC ([1]; strain AR Bank #0102, read-out: PGG MIC) | MIC ([1]; strain AR Bank #0274, read-out: PGG MIC) | MIC ([1]; strain AR Bank #0275, read-out: PGG MIC) | MIC ([1]; strain AR Bank #0277, read-out: PGG MIC) | MIC ([1]; strain AR Bank #0278, read-out: PGG MIC) | MIC ([1]; strain AR Bank #0282, read-out: PGG MIC) | MIC ([1]; strain AR Bank #0283, read-out: PGG MIC) | MIC ([1]; strain AR Bank #0295, read-out: PGG MIC) | MIC ([1]; strain Naval-81, read-out: PGG MIC) | MIC ([2]; read-out: PGG MIC) | MIC ([3]; strain NR-31915, read-out: PGG MIC)
> 64 µg/mL: MIC ([5]; strain AR Bank #0054, read-out: PGG MIC) | MIC ([5]; strain AR Bank #0090, read-out: PGG MIC) | MIC ([5]; strain AR Bank #0092, read-out: PGG MIC) | MIC ([5]; strain AR Bank #0100, read-out: PGG MIC) | MIC ([5]; strain AR Bank #0105, read-out: PGG MIC) | MIC ([5]; strain AR Bank #0108, read-out: PGG MIC)
85-95%: inhibition at which dose-response curves level off ([1]; A. baumannii, high concentrations)
4 µg/mL: IC50 ([5]; strain AR Bank #0064, read-out: PGG IC50) | IC50 ([5]; strain AR Bank #0090, read-out: PGG IC50) | IC50 ([5]; strain AR Bank #0092, read-out: PGG IC50) | IC50 ([5]; strain AR Bank #0103, read-out: PGG IC50) | IC50 ([5]; strain AR Bank #0110, read-out: PGG IC50) | IC50 ([5]; strain AR Bank #0111, read-out: PGG IC50)
most active constituent: activity in bioassay-guided fractionation for growth inhibition ([1]; CRAB, fractions of extract 429)
identical growth inhibition: growth inhibition compared to PGG isolated from S. terebinthifolia ([1]; A. baumannii)
32 µg/mL: IC50 ([5]; strain AR Bank #0105, read-out: PGG IC50)
